Key:
MKN-45 cells = test: Inhibition of MKN-45 proliferation (MTT); assay type: cell-based, human; conditions: Homo sapiens, MKN-45, MKN-45 proliferation
Procedure, shortened: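 High-Met human gastric adenocarcinoma MKN-45 cells plated in complete growth medium, compounds added next day and viability read 3 days later by MTT dye reduction.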

c-Met = c-Met (Homo sapiens, UniProt P08581); test: Inhibition of c-Met kinase phosphorylation in MKN-45 cells (cell based ELISA); design: endogenous in cells; host or cells: MKN-45; conditions: 1 h
Method: Inhibition of c-Met Kinase Phosphorylation in MKN-45 Cells:
MKN45 cells are a prototype of “c-Met addicted” cells having constitutively activated c-Met kinase similar to that observed in sub-sects of gastric or hepatocellular cancer patients with dysregulated c-Met kinase activity. Inhibition of Met phosphorylation was determined using a cell based ELISA assay according to the following schedule:
Day 1: MKN-45 cells were plated in 96-well plates in complete growth medium.
Day 2: Inhibitors at the desired concentration were added to the plates and incubated for 1 h and lysed subsequently.
Lysates were transferred to NUNC Maxisorp plates coated with anti-cMet receptor antibody. Phopho-tyrosine mAb and HRP-lined anti-mouse IgG were used as primary and secondary antibodies respectively. Optical density was measured on a microplate reader (BMG Labtech., Germany) at […]. Inhibition of c-Met phosphorylation in this cell line indicates a therapeutic potential for test compounds in patients diagnosed with cancers caused by aberrant c-Met kinase signalling.

Met kinase = Met kinase (Homo sapiens, UniProt P08581); test: MET kinase assay (colorimetric determination of c-Met kinase activity, HTScan Met Kinase Assay Kit); assay type: biochemical; design: purchased Cell Signalling Technology, Beverly, Mass; conditions: for IC50: c-Met kinase
Description: 1. MET Kinase Assay Protocol:
Colorimetric Determination of c-Met Kinase Activity
The receptor tyrosine kinase c-Met is a heterodimeric transmembrane glycoprotein involved in several cellular processes that aid in tumor progression. Phosphorylation of the tyrosine residues in the c-Met kinase domain is critical for its activity and the resulting down-stream effects. The colorimetric assay allows detection of the phosphorylated form of a biotinylated peptide upon activation of human recombinant Met kinase.
MET Kinase Assay Protocol:
c-Met Kinase activity shall be determined using an HTScan® Met Kinase Assay Kit (Cell Signalling Technology, Beverly, Mass.) with modifications. All incubations are carried out at room temperature. Briefly, 12.5 μl of a 4× reaction cocktail (DTT/Kinase buffer containing appropriate quantity of human Met kinase) is added to each well of a 96-well plate containing 12.5 μl pre-diluted compound of interest and incubated for 5 minutes. After the initial incubation, 25 μl/well of 2×ATP/biotinylated peptide is added and incubated for an additional 30 minutes. The reaction is terminated by the addition of 50 μl/well stop buffer (50 mM EDTA, pH 8.0). The reaction mixture (25 μl/well) is then transferred to a streptavidin coated plate (Perkin Elmer, Cat#4009-0010) containing 75 μl dH2O and incubated for 60 minutes. The plate is washed with 200 μl/well wash buffer (1×PBS, 0.05% Tween-20). After washing, 100 μl/well phospho-tyrosine mAb (1:1000 in wash buffer containing 1% BSA) is added and incubated for 60 minutes. After another round of washes, 100 μl/well europium labelled anti-mouse IgG (1:500 in wash buffer containing 1% BSA) is added and incubated for an additional 30 minutes. Following additional washes, 100 μl/well Delfia® enhancement solution (Perkin Elmer, Cat#1244-105) is added and incubated for 45 minutes. Florescence is measured on a microplate reader (BMG Labtech., Germany) at 340 nm (excitation) and 615 nm (emission) for calculating % inhibition. Data generated can be analyzed further using Graphpad Prism (Graphpad software, San Diego Calif.) for determination of IC50.

Sequence of c-Met (P08581 25-1390): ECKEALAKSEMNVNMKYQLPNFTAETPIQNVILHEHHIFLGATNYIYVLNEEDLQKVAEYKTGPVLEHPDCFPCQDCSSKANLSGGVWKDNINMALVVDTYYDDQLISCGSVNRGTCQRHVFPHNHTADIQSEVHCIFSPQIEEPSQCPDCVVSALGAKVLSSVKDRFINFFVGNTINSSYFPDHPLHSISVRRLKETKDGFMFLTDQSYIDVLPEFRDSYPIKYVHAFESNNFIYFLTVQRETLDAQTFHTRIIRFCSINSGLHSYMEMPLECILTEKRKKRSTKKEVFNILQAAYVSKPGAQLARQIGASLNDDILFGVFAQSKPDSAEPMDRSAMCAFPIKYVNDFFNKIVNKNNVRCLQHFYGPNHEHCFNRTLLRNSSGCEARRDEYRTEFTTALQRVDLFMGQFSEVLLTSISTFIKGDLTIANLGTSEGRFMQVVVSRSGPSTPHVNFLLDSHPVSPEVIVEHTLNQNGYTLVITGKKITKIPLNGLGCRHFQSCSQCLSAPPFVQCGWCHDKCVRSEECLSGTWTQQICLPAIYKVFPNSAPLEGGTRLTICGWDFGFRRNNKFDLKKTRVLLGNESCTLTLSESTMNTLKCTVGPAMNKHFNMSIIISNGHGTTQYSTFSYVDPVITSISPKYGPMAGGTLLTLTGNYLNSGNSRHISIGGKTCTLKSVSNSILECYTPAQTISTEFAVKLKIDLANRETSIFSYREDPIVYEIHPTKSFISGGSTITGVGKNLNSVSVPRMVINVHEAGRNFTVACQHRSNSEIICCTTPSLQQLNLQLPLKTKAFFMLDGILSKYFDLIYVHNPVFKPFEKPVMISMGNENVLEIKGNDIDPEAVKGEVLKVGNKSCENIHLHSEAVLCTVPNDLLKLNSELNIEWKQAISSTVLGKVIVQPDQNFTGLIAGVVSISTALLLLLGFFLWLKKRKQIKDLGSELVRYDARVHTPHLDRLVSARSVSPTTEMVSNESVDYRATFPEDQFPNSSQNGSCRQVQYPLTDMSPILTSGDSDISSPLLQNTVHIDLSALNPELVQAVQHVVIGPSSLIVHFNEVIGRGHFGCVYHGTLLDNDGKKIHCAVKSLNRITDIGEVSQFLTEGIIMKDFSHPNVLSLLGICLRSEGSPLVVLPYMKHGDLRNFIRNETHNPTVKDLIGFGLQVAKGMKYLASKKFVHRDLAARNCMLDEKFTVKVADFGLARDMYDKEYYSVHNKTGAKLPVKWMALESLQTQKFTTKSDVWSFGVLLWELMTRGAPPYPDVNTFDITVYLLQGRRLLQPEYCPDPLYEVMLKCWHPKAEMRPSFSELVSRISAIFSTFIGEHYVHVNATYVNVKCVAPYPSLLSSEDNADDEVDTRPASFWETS
Sequence of Met kinase (P08581 25-1390): as above

| SMILES | GI50 (MKN-45 cells) | IC50 (c-Met) | melting point | inhibition at 1 µM (Met kinase) | IC50 (Met kinase) | inhibition at 0.1 µM (MKN-45 cells) |
| --- | --- | --- | --- | --- | --- | --- |
| O=C(O)c1ccc(-c2ccc3nnn(Cc4ccc5ncccc5c4)c3n2)cc1 [Ex 8, 4-(3-(quinolin-6-ylmethyl)-3H-[1,2,3]triazolo[4,5-b]pyridin-5-yl)benzoic acid] | > 1000 nM |  | 245 to 247 °C | 75 to 100% | 50 to 100 nM |  |
| O=C(NC1CC1)c1ccc(-c2ccc3nnn(Cc4ccc5ncccc5c4)c3n2)cc1F [Ex 46, N-Cyclopropyl-2-fluoro-4-(3-(quinolin-6-ylmethyl)-3H-[1,2,3]triazolo[4,5-b]pyridin-5-yl)benzamide] | ≤ 50 nM | 50 to 150 nM |  |  |  |  |
| CC(c1ccc2ncccc2c1)n1nnc2ccc(-c3cnn(CCO)c3)nc21 (stereo not drawn) [Ex 164, 2-(4-(3-(1-(Quinolin-6-yl)ethyl)-3H-[1,2,3]triazolo[4,5-b]pyridin-5-yl)-1H-pyrazol-1-yl)ethanol] | 50 to 150 nM | 50 to 150 nM | 188 to 191 °C |  |  |  |
| CCn1cc(-c2ccc3nnn(Cc4ccc5ncccc5c4)c3n2)cn1 [Ex 197, 6-((5-(1-Ethyl-1H-pyrazol-4-yl)-3H-[1,2,3]triazolo[4,5-b]pyridin-3-yl)methyl)quinoline] |  |  | 132 to 134 °C |  |  | 25 to 50% |
| CC(C)n1cc(-c2ccc3nnn(Cc4ccc5ncccc5c4)c3n2)cn1 [Ex 198, 6-((5-(1-Isopropyl-1H-pyrazol-4-yl)-3H-[1,2,3]triazolo[4,5-b]pyridin-3-yl)methyl)quinoline] |  |  | 126 to 128 °C |  |  | < 25% |
| CC(C)Cn1cc(-c2ccc3nnn(Cc4ccc5ncccc5c4)c3n2)cn1 [Ex 199, 6-((5-(1-Isobutyl-1H-pyrazol-4-yl)-3H-[1,2,3]triazolo[4,5-b]pyridin-3-yl)methyl)quinoline] |  |  | 160 to 163 °C |  |  | < 25% |
| C[C@@H](c1ccc2ncccc2c1)n1nnc2ccc(-c3ccc(C(N)=O)c(Cl)c3)nc21 [Ex 221, (−)-2-chloro-4-(3-(1-(quinolin-6-yl)ethyl)-3H-[1,2,3]triazolo[4,5-b]pyridin-5-yl) benzamide] | ≤ 50 nM |  |  | 75 to 100% | 50 to 100 nM | 50 to 75% |
| C[C@H](c1ccc2ncccc2c1)n1nnc2ccc(-c3ccc(C(N)=O)c(Cl)c3)nc21 [Ex 222, (+)-2-chloro-4-(3-(1-(quinolin-6-yl)ethyl)-3H-[1,2,3]triazolo[4,5-b]pyridin-5-yl) benzamide] |  |  |  | 50 to 75% | 250 to 1000 nM | 25 to 50% |

Continued, in another order:

| GI50 (MKN-45 cells) | IC50 (c-Met) | melting point | inhibition at 1 µM (Met kinase) | IC50 (Met kinase) | SMILES | inhibition at 0.1 µM (MKN-45 cells) |
| --- | --- | --- | --- | --- | --- | --- |
| ≤ 50 nM | 50 to 150 nM |  |  |  | CCNC(=O)c1ccc(-c2ccc3nnn(Cc4ccc5ncccc5c4)c3n2)cc1F [Ex43] |  |
| > 1000 nM |  | 133 to 135 °C | 75 to 100% | 50 to 100 nM | COc1cccc(-c2ccc3nnn(Cc4ccc5ncccc5c4)c3n2)c1 [Ex 2, 6-((5-(3-Methoxyphenyl)-3H-[1,2,3]triazolo[4,5-b]pyridin-3-yl)methyl)quinoline] |  |
| 150 to 500 nM |  | 187 to 189 °C | 75 to 100% | 50 to 100 nM | OCc1ccc(-c2ccc3nnn(Cc4ccc5ncccc5c4)c3n2)cc1 [Ex 6, (4-(3-(quinolin-6-ylmethyl)-3H-[1,2,3]triazolo[4,5-b]pyridin-5-yl)phenyl)methanol] |  |
|  |  | 254 to 257 °C | 75 to 100% | 50 to 100 nM | O=C(O)c1ccc(-c2ccc3nnn(Cc4ccc5ncccc5c4)c3n2)cc1F [Ex 13, 2-Fluoro-4-(3-(quinolin-6-ylmethyl)-3H-[1,2,3]triazolo[4,5-b]pyridin-5-yl)benzoic acid] |  |
| 150 to 500 nM |  | 229 to 231 °C | 50 to 75% | 250 to 1000 nM | NC(=O)c1ccc(-c2ccc3nnn(Cc4ccc5ncccc5c4)c3n2)cc1 [Ex 21, 4-(3-(quinolin-6-ylmethyl)-3H-[1,2,3]triazolo[4,5-b]pyridin-5-yl)benzamide] |  |

Source: patent US10590129B2 (Incozen Therapeutics Pvt. Ltd., priority 2010, dated 2020)
